Tested on: cancer cells
Experiment: MTT cytotoxic assay of esterification products (Cytotoxicity activity)
Assay type: cell-based, human
Description: The peaks, fractions and compounds are selected according to the activities of times studies and the changes of peaks. Selecting the HPLC fractions for isolation is according to the cytotoxic activity of the reaction product obtained at a specific time. The compounds having strong to weak activities are selected and isolated. Selecting the HPLC fractions for isolation may be according to the cytotoxic activity of times studies and the change of peaks. The anti-cancer activities are the MTT studies of bone (U2OS), lung (H460), bladder (HTB-9), ovary (ES2), colon (HCT116), pancreas (Capan), ovary(OVCAR3), prostate (DU145), skin (SK-Mel-5), mouth (KB), kidney (A498), breast (MCF-7), liver (HepG2), brain (T98G), leukemia (K562), cervix (HeLa).
Esterification of compound (A), (B), (C), (D1), (D2), (E), (F), (G), (H1), (H2), E4A, E4A2Y, (P1), P(2), terpene, isoprene, triterpenes, hydroxylated triterpenes, with acyl halide, wherein the halide comprise chloride, bromide, fluoride and iodide, wherein the acyl halide comprise acyl chloride, wherein acyl chloride comprise tigloyl chloride, angeloyl chloride, acetyl chloride, crotonoyl chloride, 3,3-Dimethylacryloyl chloride, senecioyl chloride, cinnamoyl chloride, pentenoyl chloride, hexanoyl chloride, benzoyl chloride, ethylbutyryl chloride, propionyl chloride, 2-propenoyl chloride, isobutyryl chloride, butyryl chloride, (2E)-2-pentenoyl chloride, 4-Pentenoyl chloride, 5-hexenoyl chloride, heptanoyl chloride, octanoyl chloride, nonanoyl chloride, decanoyl chloride, Lauroyl chloride, myristoyl chloride, oleoyl chloride. The compounds vary in composition when the time or temperature of the reaction is changed. The peaks, fractions and compounds are selected according to the activities of times studies and the changes of peaks. The compounds having strong to weak activities are selected and isolated. The anti-cancer activities (Cytotoxic Assay) are the MTT studies of bone (U2OS), lung (H460), bladder(HTB-9), ovary (ES2), colon (HCT116), pancreas (Capan), ovary(OVCAR3), prostate (DU145), skin (SK-Mel-5), mouth (KB), kidney (A498), breast (MCF-7), liver (HepG2), brain (T98G), leukemia (K562), cervix (HeLa). The active esterification products are purified with HPLC. The reaction product of mixtures and individual compounds are tested with MTT Cytotoxic Assay. Details of method are in Experiment 3 of the present application. A second esterification of compound can be selected from the above experiment results to produce new active compounds. A partial esterification compound is selected from the above experiments to perform a second or repeated with a third esterification with different acyl chloride in order to produce new active compounds with the experiments in the present application.
Method: 40 mg of triterpene core (fraction IV) was dissolved in 1 ml pyridine in a 50 ml tube. Reaction is started by adding 0.2 ml of acyl chloride (Tigloyl chloride, angeloyl chloride, Acetyl chloride, Crotonoyl chloride, 3,3-Dimethylacryloyl chloride(senecioyl chloride), Cinnamoyl chloride, Pentenoyl chloride, Hexanoyl chloride, benzoyl chloride or Ethylbutyryl chloride). The mixture is stirred for 5 sec, 1 min, 2 min, 5 min, 10 min, 30 min, 1 hr, 2 hr, 18 hr, 2 days or 3 days at 0° C., 25° C. or 75° C. temperature. At the end of reaction, 5 ml of 2N HCl or 1 M NaHCO3 is added to the reaction mixture. The solution is then extracted 3 times with 10 ml of ethyl acetate which is then evaporated under vacuum and at 45C and lyophilization. The reaction product is dissolved in 80% acetonitrile - 0.005% Trifluoroacetic acid or DMSO; and was separated with HPLC. Selecting the HPLC fractions for isolation is according to the cytotoxic activity of the reaction product obtained at a specific reaction time. The active esterification products are purified with HPLC. The reaction product of mixtures and individual compounds are tested with MTT cytotoxic assay. Structures are determined with NMR. […]

[1] = MTT cytotoxic assay, isolated esterification products of E4A
[2] = E4A esterified with Acetyl chloride (Acy = Acetyl), compounds isolated with HPLC
[3] = E4A esterified with Cinnamoyl chloride (Cin = Cinnamoyl), compounds isolated with HPLC
[4] = E4A esterified with 2-propenoyl chloride (Ppe = Propenoyl), compounds isolated with HPLC
[5] = E4A esterified with Propionyl chloride (Ppi = Propionyl), compounds isolated with HPLC
[6] = E4A esterified with benzoyl chloride (Ben = benzoyl), compounds isolated with HPLC
[7] = esterification products of core compound E4A with (2E)-2-pentenoyl chloride (2pe = 2-pentenoyl)
[8] = esterification products of core compound E4A with Butyryl chloride (But = Butyryl)
[9] = esterification products of core compound E4A with Decanoyl chloride (Dec = Decanoyl)
[10] = esterification products of core compound E4A with Isobutyryl chloride (Iso = Isobutyryl)
[11] = esterification products of core compound E4A with Myristoyl chloride (Myr = Myristoyl)
[12] = esterification products of core compound E4A with Octanoyl chloride (Oct = Octanoyl)
[13] = E4A esterified with Crotonoyl chloride (Cro = Crotonoyl), compounds isolated with HPLC
[14] = esterification products isolated with HPLC, graded strong / moderate / weak

Compound: CCC(CC)C(=O)OCC1(C)C(OC(=O)C(CC)CC)CCC2(C)C1CCC1(C)C2CC=C2C3CC(C)(C)C(O)C(O)C3(COC(=O)C(CC)CC)C(O)CC21C (centres unmarked) [Compound E6]
- Cytotoxicity activity [1]: moderate

Compound: CC(C)=CC(=O)OCC12C(OC(=O)C=C(C)C)CC3(C)C(=CCC4C5(C)CCC(O)C(C)(CO)C5CCC43C)C1CC(C)(C)C(O)C2O (centres unmarked) [Compound B28]
- Cytotoxicity activity [1]: moderate

Compound: CC(=O)OC1C(OC(C)=O)C2(CO)C(OC(C)=O)CC3(C)C(=CCC4C5(C)CCC(O)C(C)(CO)C5CCC43C)C2CC1(C)C (centres unmarked) [Compound H22]
- Cytotoxicity activity [2]: moderate

Compound: CC1(C)CC2C3=CCC4C5(C)CCC(O)C(C)(CO)C5CCC4(C)C3(C)CC(O)C2(COC(=O)C=Cc2ccccc2)C(OC(=O)C=Cc2ccccc2)C1O (centres unmarked) [Compound J26]
- Cytotoxicity activity [3]: moderate

Compound: CC=C(C)C(=O)OCC1(C)C(O)CCC2(C)C1CCC1(C)C2CC=C2C3CC(C)(C)C(O)C(O)C3(COC(=O)C(C)=CC)C(O)CC21C (centres unmarked) [Compound A3]
- Cytotoxicity activity [1]: strong

Compound: CC1(C)CC2C3=CCC4C5(C)CCC(OC(=O)c6ccccc6)C(C)(CO)C5CCC4(C)C3(C)CC(O)C2(CO)C(OC(=O)c2ccccc2)C1OC(=O)c1ccccc1 (centres unmarked) [Compound K23]
- Cytotoxicity activity [4]: moderate
- Cytotoxicity activity [5]: moderate
- Cytotoxicity activity [6]: moderate
- Cytotoxicity activity [7]: moderate
- Cytotoxicity activity [8]: moderate
- Cytotoxicity activity [9]: moderate
- Cytotoxicity activity [10]: moderate
- Cytotoxicity activity [11]: moderate
- Cytotoxicity activity [12]: moderate

Compound: CC1(C)CC2C3=CCC4C5(C)CCC(O)C(C)(CO)C5CCC4(C)C3(C)CC(OC(=O)c3ccccc3)C2(COC(=O)c2ccccc2)C(O)C1O (centres unmarked) [Compound K28]
- Cytotoxicity activity [4]: moderate
- Cytotoxicity activity [5]: moderate
- Cytotoxicity activity [6]: moderate
- Cytotoxicity activity [7]: moderate
- Cytotoxicity activity [8]: moderate
- Cytotoxicity activity [9]: moderate
- Cytotoxicity activity [10]: moderate
- Cytotoxicity activity [11]: moderate
- Cytotoxicity activity [12]: moderate

Compound: CC1(C)CC2C3=CCC4C5(C)CCC(O)C(C)(COC(=O)C=Cc6ccccc6)C5CCC4(C)C3(C)CC(O)C2(CO)C(OC(=O)C=Cc2ccccc2)C1O (centres unmarked) [Compound J30]
- Cytotoxicity activity [3]: moderate

Compound: CCC(CC)C(=O)OCC1(C)C(OC(=O)C(CC)CC)CCC2(C)C1CCC1(C)C2CC=C2C3CC(C)(C)C(OC(=O)C(CC)CC)C(O)C3(COC(=O)C(CC)CC)C(O)CC21C (centres unmarked) [Compound E11]
- Cytotoxicity activity [1]: weak

Compound: CCC(CC)C(=O)OCC12C(O)CC3(C)C(=CCC4C5(C)CCC(OC(=O)C(CC)CC)C(C)(CO)C5CCC43C)C1CC(C)(C)C(O)C2O (centres unmarked) [Compound E27]
- Cytotoxicity activity [1]: moderate

Compound: CC1(C)CC2C3=CCC4C5(C)CCC(O)C(C)(COC(=O)C=Cc6ccccc6)C5CCC4(C)C3(C)CC(O)C2(COC(=O)C=Cc2ccccc2)C(O)C1OC(=O)C=Cc1ccccc1 (centres unmarked) [Compound J4]
- Cytotoxicity activity [3]: moderate

Compound: C=CCCC(=O)OCC1(C)C(O)CCC2(C)C1CCC1(C)C2CC=C2C3CC(C)(C)C(OC(=O)CCC=C)C(O)C3(COC(=O)CCC=C)C(OC(=O)CCC=C)CC21C (centres unmarked) [Compound C13]
- Cytotoxicity activity [1]: weak

Compound: CC=CC(=O)OCC1(C)C(O)CCC2(C)C1CCC1(C)C2CC=C2C3CC(C)(C)C(O)C(O)C3(CO)C(O)CC21C (centres unmarked) [Compound I1]
- Cytotoxicity activity [13]: moderate

Compound: CC1(C)CC2C3=CCC4C5(C)CCC(O)C(C)(COC(=O)c6ccccc6)C5CCC4(C)C3(C)CC(OC(=O)c3ccccc3)C2(COC(=O)c2ccccc2)C(OC(=O)c2ccccc2)C1O (centres unmarked) [Compound K12]
- Cytotoxicity activity [4]: weak
- Cytotoxicity activity [5]: weak
- Cytotoxicity activity [6]: weak
- Cytotoxicity activity [7]: weak
- Cytotoxicity activity [8]: weak
- Cytotoxicity activity [9]: weak
- Cytotoxicity activity [10]: weak
- Cytotoxicity activity [11]: weak
- Cytotoxicity activity [12]: weak

Compound: CC1(C)CC2C3=CCC4C5(C)CCC(O)C(C)(COC(=O)C=Cc6ccccc6)C5CCC4(C)C3(C)CC(O)C2(COC(=O)C=Cc2ccccc2)C(OC(=O)C=Cc2ccccc2)C1O (centres unmarked) [Compound J5]
- Cytotoxicity activity [3]: moderate

Compound: CC=C(C)C(=O)OCC1(C)C(OC(=O)C(C)=CC)CCC2(C)C1CCC1(C)C2CC=C2C3CC(C)(C)C(O)C(OC(=O)C(C)=CC)C3(COC(=O)C(C)=CC)C(O)CC21C (centres unmarked) [Compound A14]
- Cytotoxicity activity [1]: weak

Compound: CC=C(C)C(=O)OCC1(C)C(O)CCC2(C)C1CCC1(C)C2CC=C2C3CC(C)(C)C(OC(=O)C(C)=CC)C(OC(=O)C(C)=CC)C3(COC(=O)C(C)=CC)C(O)CC21C (centres unmarked) [Compound A8]
- Cytotoxicity activity [1]: weak

Compound: CC(C)=CC(=O)OCC12C(O)CC3(C)C(=CCC4C5(C)CCC(OC(=O)C=C(C)C)C(C)(CO)C5CCC43C)C1CC(C)(C)C(O)C2O (centres unmarked) [Compound B27]
- Cytotoxicity activity [1]: moderate

Compound: CCC(CC)C(=O)OCC1(C)C(O)CCC2(C)C1CCC1(C)C2CC=C2C3CC(C)(C)C(OC(=O)C(CC)CC)C(O)C3(CO)C(O)CC21C (centres unmarked) [Compound E29]
- Cytotoxicity activity [1]: moderate

Compound: CC=CC(=O)OCC1(C)C(O)CCC2(C)C1CCC1(C)C2CC=C2C3CC(C)(C)C(O)C(OC(=O)C=CC)C3(CO)C(O)CC21C (centres unmarked) [Compound I30]
- Cytotoxicity activity [13]: moderate

Compound: CC=C(C)C(=O)OCC1(C)C(OC(=O)C=Cc2ccccc2)CCC2(C)C1CCC1(C)C2CC=C2C3CC(C)(C)C(O)C(O)C3(COC(=O)C(C)=CC)C(O)CC21C (centres unmarked) [Tig—R—Cin—4]
- Cytotoxicity activity [14]: moderate

Compound: CC(=O)OCC1(C)C(O)CCC2(C)C1CCC1(C)C2CC=C2C3CC(C)(C)C(O)C(O)C3(COC(C)=O)C(O)CC21C (centres unmarked) [Compound H3]
- Cytotoxicity activity [2]: strong

Compound: CC=C(C)C(=O)OCC1(C)C(O)CCC2(C)C1CCC1(C)C2CC=C2C3CC(C)(C)C(OC(=O)C(C)=CC)C(O)C3(COC(=O)C(C)=CC)C(O)CC21C (centres unmarked) [Tig—Ang—2]
- Cytotoxicity activity [14]: moderate

Compound: CC=C(C)C(=O)OCC12C(O)CC3(C)C(=CCC4C5(C)CCC(O)C(C)(CO)C5CCC43C)C1CC(C)(C)C(OC(=O)C(C)=CC)C2O (centres unmarked) [Compound A25]
- Cytotoxicity activity [1]: moderate

Compound: CC1(C)CC2C3=CCC4C5(C)CCC(OC(=O)c6ccccc6)C(C)(COC(=O)c6ccccc6)C5CCC4(C)C3(C)CC(O)C2(COC(=O)c2ccccc2)C(OC(=O)c2ccccc2)C1O (centres unmarked) [Compound K14]
- Cytotoxicity activity [4]: weak
- Cytotoxicity activity [5]: weak
- Cytotoxicity activity [6]: weak
- Cytotoxicity activity [7]: weak
- Cytotoxicity activity [8]: weak
- Cytotoxicity activity [9]: weak
- Cytotoxicity activity [10]: weak
- Cytotoxicity activity [11]: weak
- Cytotoxicity activity [12]: weak

Compound: CC(=O)OCC1(C)C(O)CCC2(C)C1CCC1(C)C2CC=C2C3CC(C)(C)C(OC(C)=O)C(OC(C)=O)C3(COC(C)=O)C(OC(C)=O)CC21C (centres unmarked) [Compound H16]
- Cytotoxicity activity [2]: weak

Compound: CC=C(C)C(=O)OCC1(C)C(O)CCC2(C)C1CCC1(C)C2CC=C2C3CC(C)(C)C(OC(=O)C=C(C)C)C(O)C3(COC(=O)C=C(C)C)C(O)CC21C (centres unmarked) [Tig—Sen—2]
- Cytotoxicity activity (esterification products of E4A—Tig—N with senecioyl chloride): moderate
